The subject of this assay is Ba/F3-CDM cells (Ba/F3 transfected with CD8-MerTK). Kind of assay: In cell MER kinase assay, Ba/F3-CDM cell proliferation without IL-3 (Celltiter-Glo, GI50). Format: cell-based, murine. The following applies: 48 hours, read-out: Cell growth inhibition (GI50). As to the method:
In Cell MER Kinase Assay Using BaF3 Cellular System
To establish an in cell kinase assay for MerTK kinase, the IL-3 dependent Ba/F3 cells of murine lymphoid origin was transfected with CD8-MerTK. […] For a routine cellular assay, Ba/F3-CDM cells were seeded at 2,000 cells per well in 384-well cell culture plate containing DMEM/10% FBS culture media and incubated for 24 hours before addition of compounds pre-diluted in culture media. Following compound treatment, cells were further incubated for 48 hours and the proliferation was measured. To discriminate a Ba/F3 growth inhibition by a specific inhibition of MerTK kinase following compound treatment vs growth inhibition due to a non-specific unintended cytotoxicity of compounds, we routinely carried out control sets of Ba/F3 cells in parallel that grown in IL3-supplemented growth media. In the presence of IL-3, the proliferation of Ba/F3 is no longer dependent on the MerTK activity. Cell growth and proliferation was measured with Celltiter-Glo™ system (Promega, USA) according to the manufacturer's instruction. The half-maximal growth inhibitory concentration (GI50) value was calculated with Prism6.0 software (GraphPad, USA).
For orientation: Cellular ATP, detected with luciferase, serves as a proxy for viable cell number.

As usually defined, the GI50 is the concentration at which growth is held to half of that of the control. Turning to `Cn1cc(-c2cnc(N)c(C(=O)N[C@H]3CCC[C@@H]3OCc3ccc(-c4ccc(CN5CCN(CCO)CC5)c(C(F)(F)F)c4)cc3)c2)cn1` [Example 205, 2-amino-N-((1S,2S)-2-((4′-((4-(2-hydroxyethyl)piperazin-1-yl)methyl)-3′-(trifluoromethyl)-[1,1′-biphenyl]-4-yl)methoxy)cyclopentyl)-5-(1-methyl-1H-pyrazol-4-yl)nicotinamide], the GI50 is below 100 nM.

`CC(c1ccc(-c2ccc(CO[C@H]3CCC[C@@H]3NC(=O)c3cc(-c4cnn(C)c4)cnc3N)cc2)cc1)N1CCN(C)CC1` (stereo partly drawn) [Example 208, 2-amino-5-(1-methyl-1H-pyrazol-4-yl)-N-((1S,2S)-2-((4′-(1-(4-methylpiperazin-1-yl)ethyl)-[1,1′-biphenyl]-4-yl)methoxy)cyclopentyl)nicotinamide]: the GI50 was below 100 nM.

As for `CC(c1ccc(-c2ccc(CO[C@H]3CCC[C@@H]3NC(=O)c3cc(-c4cnn(C)c4)cnc3N)cc2)cc1)N1C[C@@H](C)N(C)[C@@H](C)C1` (stereo partly drawn) [Example 209, 2-amino-5-(1-methyl-1H-pyrazol-4-yl)-N-((1S,2S)-2-((4′-(1-((3S,5R)-3,4,5-trimethylpiperazin-1-yl)ethyl)-[1,1′-biphenyl]-4-yl)methoxy)-cyclopentyl)nicotinamide], the GI50 is below 100 nM.

`CC(c1ccc(-c2ccc(CO[C@H]3CCC[C@@H]3NC(=O)c3cc(-c4cnn(C)c4)cnc3N)cc2)cc1)N1C[C@@H](C)N(CCO)[C@@H](C)C1` (stereo partly drawn) [Example 211, 2-amino-N-((1S,2S)-2-((4′-(1-((3S,5R)-4-(2-hydroxyethyl)-3,5-dimethylpiperazin-1-yl)ethyl)-[1,1′-biphenyl]-4-yl)methoxy)cyclopentyl)-5-(1-methyl-1H-pyrazol-4-yl)nicotinamide]: the GI50 is below 100 nM.

With `CC(c1c(F)cc(-c2ccc(CO[C@H]3CCC[C@@H]3NC(=O)c3cc(-c4cnn(C)c4)cnc3N)cc2)cc1F)N1CCN(CCO)CC1` (stereo partly drawn) [Example 212, 2-amino-N-((1S,2S)-2-((3′,5′-difluoro-4′-(1-(4-(2-hydroxyethyl)-piperazin-1-yl)ethyl)-[1,1′-biphenyl]-4-yl)methoxy)cyclopentyl)-5-(1-methyl-1H-pyrazol-4-yl)nicotinamide], the GI50 was above 1000 nM.

With `C[C@H](c1ccc(-c2ccc(CO[C@H]3CCC[C@@H]3NC(=O)c3cc(-c4cnn(C)c4)cnc3N)cc2)cc1)N1CCN(C)CC1` [Example 214, 2-amino-5-(1-methyl-1H-pyrazol-4-yl)-N-((1S,2S)-2-((4′-((R)-1-(4-methylpiperazin-1-yl)ethyl)-[1,1′-biphenyl]-4-yl)methoxy)cyclopentyl)nicotinamide], the GI50 was below 100 nM.

Take `C[C@@H](c1ccc(-c2ccc(CO[C@H]3CCC[C@@H]3NC(=O)c3cc(-c4cnn(C)c4)cnc3N)cc2)cc1)N1CCN(C)CC1` [Example 215]: the 50% growth inhibitory concentration (GI50) was below 100 nM.

Consider `Cn1cc(-c2cnc(N)c(C(=O)N[C@H]3CCC[C@@H]3OCc3ccc(-c4ccc(C5(N6CCN(CCO)CC6)CC5)cc4)cc3)c2)cn1` [Example 220, 2-amino-N-((1S,2S)-2-((4′-(1-(4-(2-hydroxyethyl)piperazin-1-yl)cyclopropyl)-[1,1′-biphenyl]-4-yl)methoxy)cyclopentyl)-5-(1-methyl-1H-pyrazol-4-yl)nicotinamide], for which the GI50 is below 100 nM.

For `C[C@@H](c1ccc(-c2ccc(CO[C@H]3CCC[C@@H]3NC(=O)c3cc(-c4ccc(F)nc4)cnc3N)cc2)cc1)N1CCN(C)CC1` [Example 222, 6-amino-6′-fluoro-N-((1S,2S)-2-((4′-((S)-1-(4-methylpiperazin-1-yl)ethyl)-[1,1′-biphenyl]-4-yl)methoxy)cyclopentyl)-[3,3′-bipyridine]-5-carboxamide], the GI50 was below 100 nM.

With `C[C@@H](c1ccc(-c2ccc(CO[C@H]3CCC[C@@H]3NC(=O)c3cc(-c4ccc(F)nc4)cnc3N)cc2)cc1)N1CCN(CCO)CC1` [Example 226, 6-amino-6′-fluoro-N-((1S,2S)-2-((4′-((S)-1-(4-(2-hydroxyethyl)piperazin-1-yl)ethyl)-[1,1′-biphenyl]-4-yl)methoxy)cyclopentyl)-[3,3′-bipyridine]-5-carboxamide], the GI50 was below 100 nM.

As for `C[C@H](c1ccc(-c2ccc(CO[C@H]3CCC[C@@H]3NC(=O)c3cc(-c4ccc(F)nc4)cnc3N)cc2)cc1)N1CCN(CCO)CC1` [Example 227, 6-amino-6′-fluoro-N-((1S,2S)-2-((4′-((R)-1-(4-(2-hydroxyethyl)-piperazin-1-yl)ethyl)-[1,1′-biphenyl]-4-yl)methoxy)cyclopentyl)-[3,3′-bipyridine]-5-carboxamide], the 50% growth inhibitory concentration (GI50) is below 100 nM.

Consider `CC(c1ccc(-c2ccc(CO[C@H]3CCC[C@@H]3NC(=O)c3cc(-c4cncc(F)c4)cnc3N)cc2)cc1)N1CCN(C)CC1` (stereo partly drawn) [Example 230, 6-amino-5′-fluoro-N-((1S,2S)-2-((4′-(1-(4-methylpiperazin-1-yl)ethyl)-[1,1′-biphenyl]-4-yl)methoxy)cyclopentyl)-[3,3′-bipyridine]-5-carboxamide], for which the GI50 is below 100 nM.

Consider `CC(c1ccc(-c2ccc(CO[C@H]3CCC[C@@H]3NC(=O)c3cc(-c4cncc(F)c4)cnc3N)cc2)cc1)N1CCN(CCO)CC1` (stereo partly drawn) [Example 236, 6-amino-5′-fluoro-N-((1S,2S)-2-((4′-(1-(4-(2-hydroxyethyl)-piperazin-1-yl)ethyl)-[1,1′-biphenyl]-4-yl)methoxy)cyclopentyl)-[3,3′-bipyridine]-5-carboxamide], for which the GI50 was below 100 nM.

As to `CC(c1ccc(-c2ccc(CO[C@H]3CCC[C@@H]3NC(=O)c3cc(-c4ccc(F)nc4)cnc3N)cc2)cc1)N1CCN(CCO)CC1` (stereo partly drawn) [Example 237, 6-amino-6′-fluoro-N-((1S,2S)-2-((4′-(1-(4-(2-hydroxyethyl)-piperazin-1-yl)ethyl)-[1,1′-biphenyl]-4-yl)methoxy)cyclopentyl)-[3,3′-bipyridine]-5-carboxamide], the GI50 is below 100 nM.

Turning to `CC(c1ccc(-c2ccc(CO[C@H]3CCC[C@@H]3NC(=O)c3cc(-c4cccnc4F)cnc3N)cc2)cc1)N1CCN(CCO)CC1` (stereo partly drawn) [Example 238, 6-amino-2′-fluoro-N-((1S,2S)-2-((4′-(1-(4-(2-hydroxyethyl)-piperazin-1-yl)ethyl)-[1,1′-biphenyl]-4-yl)methoxy)cyclopentyl)-[3,3′-bipyridine]-5-carboxamide], the GI50 was below 100 nM.

With `CN1CCC(Cc2ccc(-c3ccc(CO[C@H]4CCC[C@@H]4NC(=O)c4cc(-c5cnn(C)c5)cnc4N)cc3)cc2)CC1` [Example 239, 2-amino-5-(1-methyl-1H-pyrazol-4-yl)-N-((1S,2S)-2-((4′-((1-methylpiperidin-4-yl)methyl)-[1,1′-biphenyl]-4-yl)methoxy)cyclopentyl)nicotinamide], the GI50 was below 100 nM.

For `Cn1cc(-c2cnc(N)c(C(=O)N[C@H]3CCC[C@@H]3OCc3ccc(-c4ccc(CC5CCN(CCO)CC5)cc4)cc3)c2)cn1` [Example 240, 2-amino-N-((1S,2S)-2-((4′-((1-(2-hydroxyethyl)piperidin-4-yl)-methyl)-[1,1′-biphenyl]-4-yl)methoxy)cyclopentyl)-5-(1-methyl-1H-pyrazol-4-yl)-nicotinamide], the GI50 was below 100 nM.

For `Cn1cc(-c2cnc(N)c(C(=O)N[C@H]3CCC[C@@H]3OCc3ccc(-c4ccc(CC5CCN(CC(N)=O)CC5)cc4)cc3)c2)cn1` [Example 242, 2-amino-N-((1S,2S)-2-((4′-((1-(2-amino-2-oxoethyl)piperidin-4-yl)methyl)-[1,1′-biphenyl]-4-yl)methoxy)cyclopentyl)-5-(1-methyl-1H-pyrazol-4-yl)-nicotinamide], the GI50 was below 100 nM.

Regarding `CN(C)CCOc1ccc(-c2ccc(CO[C@H]3CCC[C@@H]3NC(=O)c3cc(-c4cnn(C)c4)cnc3N)cc2)cc1` [Example 245, 2-amino-N-((1S,2S)-2-((4′-(2-(dimethylamino)ethoxy)-[1,1′-biphenyl]-4-yl)methoxy)cyclopentyl)-5-(1-methyl-1H-pyrazol-4-yl)nicotinamide], the 50% growth inhibitory concentration (GI50) lay within 500 to 1000 nM.

Consider `Cn1cc(-c2cnc(N)c(C(=O)N[C@H]3CCC[C@@H]3OCc3ccc(C#CCCO)cc3)c2)cn1` [Example 249, 2-amino-N-((1S,2S)-2-((4-(4-hydroxybut-1-yn-1-yl)benzyl)oxy)-cyclopentyl)-5-(1-methyl-1H-pyrazol-4-yl)nicotinamide], for which the GI50 was above 1000 nM.

Consider `Cn1cc(-c2cnc(N)c(C(=O)N[C@H]3CCC[C@@H]3OCc3ccc(C#CCCCCO)cc3)c2)cn1` [Example 251, 2-amino-N-((1S,2S)-2-((4-(6-hydroxyhex-1-yn-1-yl)benzyl)oxy)-cyclopentyl)-5-(1-methyl-1H-pyrazol-4-yl)nicotinamide], for which the GI50 is above 1000 nM.

With `Cc1ccc(CO[C@H]2CCC[C@@H]2NC(=O)c2cc(-c3ccc(CN4CCC(N5CCCC5)CC4)c(F)c3)cnc2N)cc1C` [Example 325, 2-amino-N-((1S,2S)-2-((3,4-dimethylbenzyl)oxy)cyclopentyl)-5-(3-fluoro-4-((4-(pyrrolidin-1-yl)piperidin-1-yl)methyl)phenyl)nicotinamide], the GI50 is above 1000 nM.

With `CCc1cc(CO[C@H]2CCC[C@@H]2NC(=O)c2cc(-c3ccc(C(C)(C)N4CCN(CCO)CC4)cc3)cnc2N)ccc1C` [Example 360, 2-amino-N-((1S,2S)-2-((3-ethyl-4-methylbenzyl)oxy)cyclopentyl)-5-(4-(2-(4-(2-hydroxyethyl)piperazin-1-yl)propan-2-yl)phenyl)nicotinamide], the GI50 was above 1000 nM.

On to `CN1CCN(Cc2ccc(-c3ccc(CO[C@H]4CCC[C@@H]4NC(=O)c4cc(-c5ccc(F)c(F)c5)cnc4N)cc3)cc2)CC1` [Example 364], for which the GI50 is below 100 nM.

The values above are taken from US10947215B2, “Heteroaryl compounds and their use as therapeutic drugs” (Dong-A Socio Holdings Co., Ltd., priority 2015, dated 2021).
